Source: PubChem BioAssay AID248 (DTP/NCI, 2004)
“And” between values parts separate entries of the source, which are not always exact repeats. Equal entries are not always repeated. Inconclusive results and toxic doses are left out.

Test system: L1210 leukemia ip in BDF1 mice, survival T/C
Experiment: NCI In Vivo Anticancer Drug Screen. Data for tumor model L1210 Leukemia (intraperitoneal) in B6D2F1 (BDF1) mice
Details: higher = longer survival
In short: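 Transplantable tumor model; survival measured in treated vs vehicle control mice. Value = treated/control.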

In the case of `CC[C@H]1CN2CCc3cc(OC)c(OC)cc3[C@@H]2C[C@@H]1C[C@H]1NCCc2cc(OC)c(OC)cc21`, the T/C (endpoint: mean survival time, dose: 0.93 mg/kg/injection, schedule: Q04DX003 (ip), vehicle: water) is reported as 108 % of control, the T/C (endpoint: mean survival time, dose: 1.0 mg/kg/injection, schedule: Q01DX009 (ip), vehicle: saline) is reported as 109 % of control and the T/C (endpoint: mean survival time, dose: 1.75 mg/kg/injection, schedule: Q01DX009 (ip), vehicle: saline) is reported as 115 % of control and 121 % of control. The T/C (endpoint: mean survival time, dose: 1.8 mg/kg/injection, schedule: Q01DX009 (ip), vehicle: saline) was 104 % of control and 120 % of control, the T/C (endpoint: mean survival time, dose: 1.86 mg/kg/injection, schedule: Q04DX003 (ip), vehicle: water) was 105 % of control and the T/C (endpoint: mean survival time, dose: 1.88 mg/kg/injection, schedule: Q01DX001 (ip), vehicle: water) was 102 % of control. For the same molecule, the T/C (endpoint: mean survival time, dose: 2.0 mg/kg/injection, schedule: Q01DX005 (iv), vehicle: saline) was 108 % of control, the T/C (endpoint: mean survival time, dose: 2.0 mg/kg/injection, schedule: Q01DX005 (oral), vehicle: saline) was 103 % of control and the T/C (endpoint: mean survival time, dose: 2.0 mg/kg/injection, schedule: Q01DX005 (sc), vehicle: saline) was 105 % of control. For the same molecule, the T/C (endpoint: mean survival time, dose: 2.0 mg/kg/injection, schedule: Q01DX006 (ip), vehicle: saline) was 112 % of control, the T/C (endpoint: mean survival time, dose: 2.0 mg/kg/injection, schedule: Q01DX009 (ip), vehicle: saline) was 108 % of control and the T/C (endpoint: mean survival time, dose: 2.0 mg/kg/injection, schedule: Q04DX003 (ip), vehicle: saline) was 100 % of control. The T/C (endpoint: mean survival time, dose: 2.0 mg/kg/injection, schedule: Q04DX003 (iv), vehicle: saline) was 110 % of control, the T/C (endpoint: mean survival time, dose: 2.0 mg/kg/injection, schedule: Q04DX003 (oral), vehicle: saline) was 110 % of control and the T/C (endpoint: mean survival time, dose: 2.0 mg/kg/injection, schedule: Q04DX003 (sc), vehicle: saline) was 106 % of control. For the same molecule, the T/C (endpoint: mean survival time, dose: 2.0 mg/kg/injection, schedule: Q08DX002 (iv), vehicle: saline) was 106 % of control, the T/C (endpoint: mean survival time, dose: 2.0 mg/kg/injection, schedule: Q08DX002 (oral), vehicle: saline) was 103 % of control and the T/C (endpoint: mean survival time, dose: 2.5 mg/kg/injection, schedule: Q04DX003 (ip), vehicle: water) was 104 % of control. The T/C (endpoint: mean survival time, dose: 3.0 mg/kg/injection, schedule: Q01DX009 (oral), vehicle: saline) was 112 % of control, the T/C (endpoint: mean survival time, dose: 3.75 mg/kg/injection, schedule: Q01DX001 (ip), vehicle: water) was 103 % of control and the T/C (endpoint: mean survival time, dose: 3.75 mg/kg/injection, schedule: Q04DX003 (ip), vehicle: water) was 104 % of control. For the same molecule, the T/C (endpoint: mean survival time, dose: 4.0 mg/kg/injection, schedule: Q01DX009 (ip), vehicle: saline) was 97 % of control, the T/C (endpoint: mean survival time, dose: 4.0 mg/kg/injection, schedule: Q04DX003 (ip), vehicle: water) was 113 % of control and 116 % of control and 117 % of control and the T/C (endpoint: mean survival time, dose: 4.0 mg/kg/injection, schedule: Q04DX003 (iv), vehicle: saline) was 108 % of control. The T/C (endpoint: mean survival time, dose: 4.0 mg/kg/injection, schedule: Q04DX003 (oral), vehicle: saline) was 108 % of control, the T/C (endpoint: mean survival time, dose: 4.0 mg/kg/injection, schedule: Q04DX003 (sc), vehicle: saline) was 110 % of control and the T/C (endpoint: mean survival time, dose: 4.0 mg/kg/injection, schedule: Q08DX002 (ip), vehicle: saline) was 112 % of control. The T/C (endpoint: mean survival time, dose: 4.0 mg/kg/injection, schedule: Q08DX002 (oral), vehicle: saline) was 110 % of control, the T/C (endpoint: mean survival time, dose: 4.0 mg/kg/injection, schedule: Q08DX002 (sc), vehicle: saline) was 108 % of control and the T/C (endpoint: mean survival time, dose: 4.0 mg/kg/injection, schedule: Q## X003 (ip), vehicle: saline) was 115 % of control. For the same molecule, the T/C (endpoint: mean survival time, dose: 5.0 mg/kg/injection, schedule: Q04DX003 (ip), vehicle: water) was 109 % of control, the T/C (endpoint: mean survival time, dose: 6.0 mg/kg/injection, schedule: Q01DX009 (oral), vehicle: saline) was 108 % of control and the T/C (endpoint: mean survival time, dose: 6.0 mg/kg/injection, schedule: Q01DX015 (ip), vehicle: saline) was 102 % of control. The T/C (endpoint: mean survival time, dose: 7.5 mg/kg/injection, schedule: Q01DX001 (ip), vehicle: water) was 106 % of control, the T/C (endpoint: mean survival time, dose: 8.0 mg/kg/injection, schedule: Q01DX006 (ip), vehicle: saline) was 156 % of control and the T/C (endpoint: mean survival time, dose: 8.0 mg/kg/injection, schedule: Q04DX003 (ip), vehicle: water) was 109 % of control and 124 % of control. The T/C (endpoint: mean survival time, dose: 8.0 mg/kg/injection, schedule: Q04DX003 (iv), vehicle: saline) was 122 % of control, the T/C (endpoint: mean survival time, dose: 8.0 mg/kg/injection, schedule: Q04DX003 (oral), vehicle: saline) was 116 % of control and the T/C (endpoint: mean survival time, dose: 8.0 mg/kg/injection, schedule: Q04DX003 (sc), vehicle: saline) was 113 % of control. The T/C (endpoint: mean survival time, dose: 8.0 mg/kg/injection, schedule: Q08DX002 (ip), vehicle: saline) was 120 % of control, the T/C (endpoint: mean survival time, dose: 8.0 mg/kg/injection, schedule: Q08DX002 (oral), vehicle: saline) was 110 % of control and the T/C (endpoint: mean survival time, dose: 8.0 mg/kg/injection, schedule: Q08DX002 (sc), vehicle: saline) was 111 % of control. For the same molecule, the T/C (endpoint: mean survival time, dose: 8.0 mg/kg/injection, schedule: Q## X002 (ip), vehicle: saline) was 118 % of control, the T/C (endpoint: mean survival time, dose: 8.0 mg/kg/injection, schedule: Q## X003 (ip), vehicle: saline) was 123 % of control and the T/C (endpoint: mean survival time, dose: 8.0 mg/kg/injection, schedule: Q## X008 (ip), vehicle: saline) was 110 % of control. The T/C (endpoint: mean survival time, dose: 8.0 mg/kg/injection, schedule: Q## X024 (ip), vehicle: saline) was 117 % of control, the T/C (endpoint: mean survival time, dose: 9.0 mg/kg/injection, schedule: Q01DX Z (ip), vehicle: methylcellulose (MC)) was 92 % of control and the T/C (endpoint: mean survival time, dose: 10.0 mg/kg/injection, schedule: Q04DX009 (ip), vehicle: water) was 121 % of control. For the same molecule, the T/C (endpoint: mean survival time, dose: 15.0 mg/kg/injection, schedule: Q01DX001 (ip), vehicle: water) was 117 % of control, the T/C (endpoint: mean survival time, dose: 15.0 mg/kg/injection, schedule: Q04DX003 (ip), vehicle: Klucel (hydroxypropylcellulose) (HPC)) was 152 % of control and the T/C (endpoint: mean survival time, dose: 15.0 mg/kg/injection, schedule: Q04DX009 (ip), vehicle: water) was 160 % of control. The T/C (endpoint: mean survival time, dose: 16.0 mg/kg/injection, schedule: Q01DX001 (ip), vehicle: saline) was 121 % of control, the T/C (endpoint: mean survival time, dose: 16.0 mg/kg/injection, schedule: Q04DX003 (ip), vehicle: water) was 161 % of control and the T/C (endpoint: mean survival time, dose: 16.0 mg/kg/injection, schedule: Q## X003 (ip), vehicle: saline) was 171 % of control. The T/C (endpoint: mean survival time, dose: 20.0 mg/kg/injection, schedule: Q04DX003 (ip), vehicle: Klucel (hydroxypropylcellulose) (HPC)) was 162 % of control and 164 % of control, the T/C (endpoint: mean survival time, dose: 20.0 mg/kg/injection, schedule: Q04DX009 (ip), vehicle: water) was 168 % of control and the T/C (endpoint: mean survival time, dose: 22.2 mg/kg/injection, schedule: Q01DX001 (ip), vehicle: carboxymethylcellulose (CMC)) was 102 % of control. The T/C (endpoint: mean survival time, dose: 25.0 mg/kg/injection, schedule: Q04DX003 (ip), vehicle: saline with Tween-80) was 164 % of control, the T/C (endpoint: mean survival time, dose: 25.0 mg/kg/injection, schedule: Q04DX009 (ip), vehicle: water) was 118 % of control and the T/C (endpoint: mean survival time, dose: 30.0 mg/kg/injection, schedule: Q04DX003 (ip), vehicle: Klucel (hydroxypropylcellulose) (HPC)) was 95 % of control and 107 % of control. The T/C (endpoint: mean survival time, dose: 30.0 mg/kg/injection, schedule: Q04DX003 (ip), vehicle: saline with Tween-80) was 115 % of control, the T/C (endpoint: mean survival time, dose: 32.0 mg/kg/injection, schedule: Q04DX003 (ip), vehicle: water) was 154 % of control and the T/C (endpoint: mean survival time, dose: 32.0 mg/kg/injection, schedule: Q08DX002 (ip), vehicle: saline) was 152 % of control. The T/C (endpoint: mean survival time, dose: 33.35 mg/kg/injection, schedule: Q01DX001 (ip), vehicle: carboxymethylcellulose (CMC)) was 107 % of control, the T/C (endpoint: median survival time, dose: 3.75 mg/kg/injection, schedule: Q04DX003 (ip), vehicle: saline) was 116 % of control and the T/C (endpoint: median survival time, dose: 4.0 mg/kg/injection, schedule: Q04DX003 (ip), vehicle: saline) was 103 % of control. The T/C (endpoint: median survival time, dose: 7.5 mg/kg/injection, schedule: Q04DX003 (ip), vehicle: saline) was 122 % of control, the T/C (endpoint: median survival time, dose: 8.0 mg/kg/injection, schedule: Q01DX001 (ip), vehicle: saline) was 112 % of control and the T/C (endpoint: median survival time, dose: 15.0 mg/kg/injection, schedule: Q04DX003 (ip), vehicle: saline) was 161 % of control and 168 % of control. The T/C (endpoint: median survival time, dose: 16.0 mg/kg/injection, schedule: Q04DX003 (ip), vehicle: saline) was 166 % of control, the T/C (endpoint: median survival time, dose: 20.0 mg/kg/injection, schedule: Q04DX003 (ip), vehicle: saline) was 177 % of control and 179 % of control and the T/C (endpoint: median survival time, dose: 30.0 mg/kg/injection, schedule: Q04DX003 (ip), vehicle: saline) was 101 % of control. For the same molecule, the T/C (endpoint: median survival time, dose: 32.0 mg/kg/injection, schedule: Q04DX003 (ip), vehicle: saline) was 110 % of control and the T/C (endpoint: median survival time, dose: 40.0 mg/kg/injection, schedule: Q04DX003 (ip), vehicle: saline) was 69 % of control.
